Results as given in PubChem BioAssay AID256 (DTP/NCI, 2004).
Several values for one entry are separate records, joined by “and”; a condition that tells them apart may be missing. Identical values can stand only once. Toxic doses and inconclusive results are not listed.

Test system: CD2F1 mice, L1210 leukemia ip, survival T/C
Experiment: NCI In Vivo Anticancer Drug Screen. Data for tumor model L1210 Leukemia (intraperitoneal) in CD2F1 (CDF1) mice
Details: higher = longer survival
Summary of the method: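 Transplantable tumor in mice; compound-treated vs vehicle-treated groups. Read-out = treated/control ratio of the measured endpoint.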

[1] = endpoint: mean survival time, dose: 50.0 mg/kg/injection, schedule: Q01DX001 (ip), vehicle: saline
[2] = endpoint: mean survival time, dose: 100.0 mg/kg/injection, schedule: Q01DX001 (ip), vehicle: saline
[3] = endpoint: mean survival time, dose: 200.0 mg/kg/injection, schedule: Q01DX001 (ip), vehicle: saline
[4] = endpoint: mean survival time, dose: 400.0 mg/kg/injection, schedule: Q01DX001 (ip), vehicle: saline
[5] = endpoint: mean survival time, dose: 50.0 mg/kg/injection, schedule: Q01DX009 (ip), vehicle: saline with Tween-80
[6] = endpoint: mean survival time, dose: 100.0 mg/kg/injection, schedule: Q01DX009 (ip), vehicle: saline with Tween-80
[7] = endpoint: mean survival time, dose: 200.0 mg/kg/injection, schedule: Q01DX009 (ip), vehicle: saline with Tween-80
[8] = endpoint: mean survival time, dose: 25.0 mg/kg/injection, schedule: Q04DX002 (ip), vehicle: saline with Tween-80
[9] = endpoint: mean survival time, dose: 50.0 mg/kg/injection, schedule: Q04DX002 (ip), vehicle: saline with Tween-80
[10] = endpoint: mean survival time, dose: 100.0 mg/kg/injection, schedule: Q04DX002 (ip), vehicle: saline with Tween-80
[11] = endpoint: mean survival time, dose: 200.0 mg/kg/injection, schedule: Q04DX002 (ip), vehicle: saline with Tween-80
[12] = endpoint: mean survival time, dose: 100.0 mg/kg/injection, schedule: Q01DX001 (ip), vehicle: saline with Tween-80
[13] = endpoint: mean survival time, dose: 200.0 mg/kg/injection, schedule: Q01DX001 (ip), vehicle: saline with Tween-80
[14] = endpoint: mean survival time, dose: 400.0 mg/kg/injection, schedule: Q01DX001 (ip), vehicle: saline with Tween-80

With `CC(C)NCC(O)c1ccc(O)c(O)c1` (centres undefined) the T/C (endpoint: mean survival time, dose: 4.0 mg/kg/injection, schedule: Q01DX009 (ip), vehicle: saline) was 101 % of control, the T/C (endpoint: mean survival time, dose: 8.0 mg/kg/injection, schedule: Q01DX009 (ip), vehicle: saline) was 107 % of control and 109 % of control and the T/C (endpoint: mean survival time, dose: 16.0 mg/kg/injection, schedule: Q01DX001 (ip), vehicle: saline) was 96 % of control. For the same compound, the T/C (endpoint: mean survival time, dose: 16.0 mg/kg/injection, schedule: Q01DX009 (ip), vehicle: saline) was 107 % of control and 113 % of control, the T/C (endpoint: mean survival time, dose: 32.0 mg/kg/injection, schedule: Q01DX001 (ip), vehicle: saline) was 100 % of control and the T/C (endpoint: mean survival time, dose: 32.0 mg/kg/injection, schedule: Q01DX009 (ip), vehicle: saline) was 104 % of control and 107 % of control. For the same compound, the T/C [1] was 95 % of control, the T/C (endpoint: mean survival time, dose: 64.0 mg/kg/injection, schedule: Q01DX001 (ip), vehicle: saline) was 98 % of control and 102 % of control and the T/C (endpoint: mean survival time, dose: 64.0 mg/kg/injection, schedule: Q01DX009 (ip), vehicle: saline) was 121 % of control. The T/C [2] was 104 % of control, the T/C (endpoint: mean survival time, dose: 100.0 mg/kg/injection, schedule: Q01DX009 (ip), vehicle: saline) was 108 % of control and the T/C (endpoint: mean survival time, dose: 128.0 mg/kg/injection, schedule: Q01DX001 (ip), vehicle: saline) was 100 % of control and 105 % of control. The T/C (endpoint: mean survival time, dose: 178.0 mg/kg/injection, schedule: Q01DX009 (ip), vehicle: saline) was 112 % of control, the T/C [3] was 104 % of control and the T/C (endpoint: mean survival time, dose: 200.0 mg/kg/injection, schedule: Q01DX009 (ip), vehicle: saline) was 111 % of control. For the same compound, the T/C (endpoint: mean survival time, dose: 256.0 mg/kg/injection, schedule: Q01DX001 (ip), vehicle: other) was 102 % of control, the T/C (endpoint: mean survival time, dose: 256.0 mg/kg/injection, schedule: Q01DX001 (ip), vehicle: saline) was 105 % of control and the T/C (endpoint: mean survival time, dose: 266.0 mg/kg/injection, schedule: Q01DX009 (ip), vehicle: saline) was 120 % of control. The T/C [4] was 110 % of control, the T/C (endpoint: mean survival time, dose: 400.0 mg/kg/injection, schedule: Q01DX009 (ip), vehicle: saline) was 122 % of control and the T/C (endpoint: mean survival time, dose: 600.0 mg/kg/injection, schedule: Q01DX009 (ip), vehicle: saline) was 112 % of control.
With `O=C(CCl)c1cc(Cl)c(O)c(Cl)c1` the T/C (endpoint: mean survival time, dose: 50.0 mg/kg/injection, schedule: Q01DX001 (ip), vehicle: carboxymethylcellulose (CMC)) was 97 % of control.
`c1ccc(COCC2OC(C3N(c4ccccc4)CCN3c3ccccc3)C(OCc3ccccc3)C2OCc2ccccc2)cc1` (centres undefined) was tested, and the T/C (endpoint: mean survival time, dose: 12.5 mg/kg/injection, schedule: Q01DX005 (ip), vehicle: distilled water + Tween-80) was 102 % of control, the T/C (endpoint: mean survival time, dose: 25.0 mg/kg/injection, schedule: Q01DX005 (ip), vehicle: distilled water + Tween-80) was 98 % of control and the T/C (endpoint: mean survival time, dose: 50.0 mg/kg/injection, schedule: Q01DX005 (ip), vehicle: distilled water + Tween-80) was 102 % of control. The T/C (endpoint: mean survival time, dose: 100.0 mg/kg/injection, schedule: Q01DX005 (ip), vehicle: distilled water + Tween-80) was 97 % of control and the T/C (endpoint: mean survival time, dose: 200.0 mg/kg/injection, schedule: Q01DX005 (ip), vehicle: distilled water + Tween-80) was 92 % of control.
In the case of `COC(=O)c1cc(OC)cc(OC)c1`, the T/C (endpoint: mean survival time, dose: 100.0 mg/kg/injection, schedule: Q01DX009 (ip), vehicle: other) is reported as 96 % of control, the T/C (endpoint: mean survival time, dose: 200.0 mg/kg/injection, schedule: Q01DX009 (ip), vehicle: other) is reported as 110 % of control and the T/C (endpoint: mean survival time, dose: 400.0 mg/kg/injection, schedule: Q01DX009 (ip), vehicle: other) is reported as 91 % of control.
With `Cc1cc(N2CCN(C)CC2)n2nc(-c3ccc(Cl)cc3)nc2n1` the T/C (endpoint: mean survival time, dose: 50.0 mg/kg/injection, schedule: Q01DX001 (ip), vehicle: Klucel (hydroxypropylcellulose) (HPC)) was 120 % of control, the T/C (endpoint: mean survival time, dose: 50.0 mg/kg/injection, schedule: Q01DX009 (ip), vehicle: Klucel (hydroxypropylcellulose) (HPC)) was 100 % of control and the T/C (endpoint: mean survival time, dose: 100.0 mg/kg/injection, schedule: Q01DX001 (ip), vehicle: Klucel (hydroxypropylcellulose) (HPC)) was 95 % of control. The T/C (endpoint: mean survival time, dose: 100.0 mg/kg/injection, schedule: Q01DX009 (ip), vehicle: Klucel (hydroxypropylcellulose) (HPC)) was 99 % of control, the T/C (endpoint: mean survival time, dose: 200.0 mg/kg/injection, schedule: Q01DX001 (ip), vehicle: Klucel (hydroxypropylcellulose) (HPC)) was 93 % of control and the T/C (endpoint: mean survival time, dose: 200.0 mg/kg/injection, schedule: Q01DX009 (ip), vehicle: Klucel (hydroxypropylcellulose) (HPC)) was 97 % of control.
In the case of `CCCSc1ccc2nc(NC(=O)OC)[nH]c2c1`, the T/C [5] is reported as 93 % of control, the T/C [6] is reported as 107 % of control and the T/C [7] is reported as 118 % of control.
`Cc1ccc(C(=O)Nc2ncn(C3CC(O)C(CO)O3)c(=O)n2)cc1` (centres undefined) was tested, and the T/C (endpoint: mean survival time, dose: 1.56 mg/kg/injection, schedule: Q01DX005 (ip), vehicle: saline with Tween-80) was 116 % of control, the T/C (endpoint: mean survival time, dose: 3.13 mg/kg/injection, schedule: Q01DX005 (ip), vehicle: saline with Tween-80) was 154 % of control and the T/C (endpoint: mean survival time, dose: 6.25 mg/kg/injection, schedule: Q01DX005 (ip), vehicle: saline with Tween-80) was 276 % of control. The T/C (endpoint: mean survival time, dose: 12.5 mg/kg/injection, schedule: Q01DX005 (ip), vehicle: saline with Tween-80) was 244 % of control and the T/C (endpoint: mean survival time, dose: 50.0 mg/kg/injection, schedule: Q01DX005 (ip), vehicle: saline with Tween-80) was 92 % of control.
With `CO/N=C/C1OC(n2ccc(=O)[nH]c2=O)C2OC(C)(C)OC12` (centres undefined) the T/C (endpoint: median survival time, dose: 12.5 mg/kg/injection, schedule: Q01DX005 (ip), vehicle: Klucel (hydroxypropylcellulose) (HPC)) was 100 % of control, the T/C (endpoint: median survival time, dose: 25.0 mg/kg/injection, schedule: Q01DX005 (ip), vehicle: Klucel (hydroxypropylcellulose) (HPC)) was 110 % of control and the T/C (endpoint: median survival time, dose: 50.0 mg/kg/injection, schedule: Q01DX005 (ip), vehicle: Klucel (hydroxypropylcellulose) (HPC)) was 107 % of control. The T/C (endpoint: median survival time, dose: 100.0 mg/kg/injection, schedule: Q01DX005 (ip), vehicle: Klucel (hydroxypropylcellulose) (HPC)) was 101 % of control.
For `O=C(C#Cc1ccccc1)N1CCCCC1`, the T/C [8] was 99 % of control, the T/C [9] was 99 % of control and the T/C [10] was 101 % of control. The T/C [11] was 92 % of control.
`CCOC(=O)Cc1ccnc(C)c1` was tested, and the T/C [12] was 93 % of control, the T/C [6] was 100 % of control and the T/C [13] was 94 % of control. For the same compound, the T/C [7] was 103 % of control and the T/C [14] was 96 % of control.
For `ON(C(=Nc1ccc(Cl)cc1)c1ccccc1)c1ccccc1`, the T/C [2] was 105 % of control, the T/C (endpoint: mean survival time, dose: 100.0 mg/kg/injection, schedule: Q04DX003 (ip), vehicle: saline) was 100 % of control and the T/C [3] was 97 % of control. The T/C (endpoint: mean survival time, dose: 200.0 mg/kg/injection, schedule: Q04DX003 (ip), vehicle: saline) was 102 % of control, the T/C [4] was 100 % of control and the T/C (endpoint: mean survival time, dose: 400.0 mg/kg/injection, schedule: Q04DX003 (ip), vehicle: saline) was 100 % of control.
With `O=c1ccn(C2OC(CCl)C(O)C2O)c(=O)[nH]1` (centres undefined) the T/C [1] was 105 % of control, the T/C [2] was 102 % of control and the T/C [3] was 94 % of control.
With `O=c1[nH]ccc2occc12` the T/C [5] was 101 % of control, the T/C [6] was 102 % of control and the T/C (endpoint: mean survival time, dose: 100.0 mg/kg/injection, schedule: Q04DX003 (ip), vehicle: saline with Tween-80) was 105 % of control. For the same compound, the T/C (endpoint: mean survival time, dose: 200.0 mg/kg/injection, schedule: Q04DX003 (ip), vehicle: saline with Tween-80) was 109 % of control.
`O=S(=O)(c1ccc(N2CCOCC2)cc1)c1ccnc2cc(Cl)ccc12` was tested, and the T/C [12] was 93 % of control, the T/C [6] was 89 % of control and the T/C [13] was 101 % of control. For the same compound, the T/C [14] was 87 % of control.
`Cc1cc(N=Nc2ccc(S(=O)(=O)[O-])cc2)cc(C(=O)[O-])c1[O-].NC1CCCCC1N.[Na+].[Pt+4]` was tested, and the T/C (endpoint: median survival time, dose: 3.12 mg/kg/injection, schedule: Q04DX003 (ip), vehicle: saline with Tween-80) was 180 % of control and 287 % of control, the T/C (endpoint: median survival time, dose: 6.25 mg/kg/injection, schedule: Q04DX003 (ip), vehicle: saline with Tween-80) was 265 % of control and 344 % of control and the T/C (endpoint: median survival time, dose: 12.5 mg/kg/injection, schedule: Q04DX003 (ip), vehicle: saline with Tween-80) was 244 % of control and 310 % of control. For the same compound, the T/C (endpoint: median survival time, dose: 25.0 mg/kg/injection, schedule: Q04DX003 (ip), vehicle: saline with Tween-80) was 122 % of control.
With `CC1=C(N2CC2)C(=O)c2c(COC(N)=O)c3n(c2C1=O)C[C@H]1N[C@@H]31` the T/C (endpoint: mean survival time, dose: 3.0 mg/kg/injection, schedule: Q01DX001 (ip), vehicle: distilled water + Tween-80) was 106 % of control, the T/C (endpoint: mean survival time, dose: 6.0 mg/kg/injection, schedule: Q01DX001 (ip), vehicle: distilled water + Tween-80) was 118 % of control and the T/C (endpoint: mean survival time, dose: 12.0 mg/kg/injection, schedule: Q01DX001 (ip), vehicle: distilled water + Tween-80) was 122 % of control. The T/C (endpoint: mean survival time, dose: 24.0 mg/kg/injection, schedule: Q01DX001 (ip), vehicle: distilled water + Tween-80) was 120 % of control.
`CCC(=O)NC(=O)C(=O)NC(=O)CC` was tested, and the T/C [8] was 102 % of control, the T/C [9] was 95 % of control and the T/C [10] was 91 % of control. The T/C [11] was 109 % of control.
`CC(C)C(=O)C(C)(C)C(=O)N1CCCCC1` was tested, and the T/C [6] was 96 % of control, the T/C [7] was 103 % of control and the T/C (endpoint: mean survival time, dose: 400.0 mg/kg/injection, schedule: Q01DX009 (ip), vehicle: saline with Tween-80) was 94 % of control.
